According to patent publication US12714696B2, “Low dose fluralaner compositions for protection against parasitic invertebrate pest” (VIRBAC, priority 2019, dated 2026):
Where two headings read alike, the source gives them in different places.

Columns and labels:
C. felis fleas = assay: Efficacy against fleas on dogs, oral 250/35/600 μg/kg study; assay type: in vivo; settings: Day 3, following 3 consecutive doses of 250 μg/kg per day
Procedure: The second objective is to investigate the pharmacodynamics between the fluralaner plasmatic dose and the effectiveness against ticks. • IVP: Investigational Veterinary Product, is pure Fluralaner+DMSO (250 μg/kg on Days 0 to 3 (0.25 mL/kg), then 35 μg/kg on Days 4 to 9 (0.35 mL/kg), then 600 μg/kg on Day 11) • Control product is DMSO (0.25 mL/kg on Days 0 to 3, then 0.35 mL/kg on Days 4 to 9)
Dogs were infested with approximately 50 (±4) viable, adult, unfed R. sanguineus ticks on Days 1, 3, 5, 8, 10, 12, 16, 22, 26 and 30 to assess efficacy. Ticks will be removed and counted on Days 3, 5, 7 (48 hours±2 hours after infestation) and 9, 11, 13, 17, 24, 27, 32 (24 hours±2 hours after infestation). […] Fleas will be removed and counted on Days −5 (+1 day) and 3 (24 hours±2 hours after infestation).
The efficacy against ticks and fleas were calculated for the study groups at each assessment day according to the formulas given below.
Efficacy was calculated as follows: Efficacy (%)=100×(Mc−Mt)/Mc, where: • Mc=Mean number of live ticks (categories 1 to 2) or live fleas on dogs in the negative control group (group 1) at a specific time point. • Mt=Mean number of live ticks (categories 1 to 2) or live fleas on dogs in the IVP group (group 2) • at a specific time point.

[1] = Adverse event observation, oral study against ticks; assay type: in vivo, beagle dogs; settings: oral 250/35/600 μg/kg regimen, dogs
Procedure: Dogs assigned to group 1 received the control product and served as Placebo controls. Dogs were observed hourly±15 minutes for four hours after administration on Day 0 and once daily two hours±15 minutes after Investigational Veterinary Product or control product administration on Days 1, 2 and 3. Observations were conducted for each individual dog.

[2] = cited from earlier work
[3] = Intravenous 12.5 mg/kg, single, dogs, n = 6, mean ± standard deviation
[4] = Oral 12.5 mg/kg, single, dogs, n = 6, mean ± standard deviation
[5] = Oral 25.0 mg/kg, single, dogs, n = 6, mean ± standard deviation
[6] = Oral 50.0 mg/kg, single, dogs, n = 6, mean ± standard deviation
[7] = literature data (Table 6; equals Oral 50.0 mg/kg of Table 5)

## Cc1cc(C2=NOC(c3cc(Cl)cc(Cl)c3)(C(F)(F)F)C2)ccc1C(=O)NCC(=O)NCC(F)(F)F (stereo not shown) [fluralaner, Fluralaner]
C. felis fleas
  efficacy against fleas: 92%
[1]
  Adverse Events as a result of the product: No Adverse Events
[2]; [3]
  AUC(0-d112): 87198 ± 11835 ng·days/mL
  AUC(0→∞): 87779 ± 12004 ng·days/mL
  Cl: 5.83 ± 0.83 mL/h/kg
  Cmax: 7109 ± 908 ng/mL
  MRT: 20 ± 3 days
  Vz: 3.1 ± 0.5 L/kg
  t1/2: 15 ± 2 days
[2]; Oral 12.5 mg/kg, single, dogs, n = 6, Median
  tmax: 1 (range 0.08-2) day
[2]; [4]
  AUC(0-d112): 29665 ± 13858 ng·days/mL
  AUC(0→∞): 29922 ± 13808 ng·days/mL
  Cmax: 2144 ± 860 ng/mL
  MRT: 19 ± 2 days
  t1/2: 13 ± 1 days
[2]; Oral 25.0 mg/kg, single, dogs, n = 6, Median
  tmax: 1 (range 1-2) day
[2]; [5]
  AUC(0-d112): 46115 ± 18932 ng·days/mL
  AUC(0→∞): 46416 ± 18929 ng·days/mL
  Cmax: 3948 ± 1734 ng/mL
  MRT: 15 ± 4 days
  t1/2: 12 ± 3 days
[2]; Oral 50.0 mg/kg, single, dogs, n = 6, Median
  tmax: 1 (range 0.17-3) day
[2]; [6]
  AUC(0-d112): 70171 ± 26412 ng·days/mL
  AUC(0→∞): 70531 ± 26529 ng·days/mL
  Cmax: 5419 ± 2086 ng/mL
  MRT: 17 ± 3 days
  t1/2: 14 ± 1 days
[2]; [7]
  AUCtot: 70531 µg·days/L
  Cmax: 5419 ng/mL
  t1/2: 14 days
  tmax: 1 days
